Experimental data published in article doi:10.1101/2021.04.08.439011v1 (biorxiv, 2021).

Assays:
[1] = target: RSK3(Kin.Dom.1-N-terminal) (Homo sapiens, UniProt Q15349); details: 0.1 µM; binder
[2] = target: RSK3(Kin.Dom.2-C-terminal) (Homo sapiens, UniProt Q15349); details: 0.1 µM; binder
[3] = target: RPS6KA5(Kin.Dom.2-C-terminal) (Homo sapiens, UniProt O75582); details: 0.1 µM; binder
[4] = target: PKNB (M. tuberculosis) (Mycobacterium tuberculosis, UniProt P9WI81); details: 1 µM; binder
[5] = target: SRC (Homo sapiens, UniProt P12931); details: 0.1 µM; binder
[6] = target: FLT3(ITD,F691L) (Homo sapiens, UniProt P36888, F691L/ITD); details: 0.1 µM; binder
[7] = target: PLK1 (Homo sapiens, UniProt P53350); details: 0.1 µM; binder
[8] = target: NEK7 (Homo sapiens, UniProt Q8TDX7); details: 0.1 µM; binder
[9] = target: EGFR(L861Q) (Homo sapiens, UniProt P00533, L861Q); details: 0.1 µM; binder
[10] = target: CAMK2B (Homo sapiens, UniProt Q13554); details: 0.1 µM; binder
[11] = target: TRKB (Homo sapiens, UniProt Q16620); details: 0.1 µM; binder
[12] = target: CLK2 (Homo sapiens, UniProt P49760); details: 0.1 µM; binder
[13] = target: NEK9 (Homo sapiens, UniProt Q8TD19); details: 0.1 µM; binder
[14] = target: MUSK (Homo sapiens, UniProt O15146); details: 0.1 µM; binder
[15] = target: PFPK5(P. falciparum) (Plasmodium falciparum, UniProt P61075); details: 0.1 µM; binder
[16] = target: RSK1(Kin.Dom.2-C-terminal) (Homo sapiens, UniProt Q15418); details: 0.1 µM; binder
[17] = target: RPS6KA5(Kin.Dom.1-N-terminal) (Homo sapiens, UniProt O75582); details: 0.1 µM; binder

Measured: Percent Control

PLK1, sequence (P53350 whole entry): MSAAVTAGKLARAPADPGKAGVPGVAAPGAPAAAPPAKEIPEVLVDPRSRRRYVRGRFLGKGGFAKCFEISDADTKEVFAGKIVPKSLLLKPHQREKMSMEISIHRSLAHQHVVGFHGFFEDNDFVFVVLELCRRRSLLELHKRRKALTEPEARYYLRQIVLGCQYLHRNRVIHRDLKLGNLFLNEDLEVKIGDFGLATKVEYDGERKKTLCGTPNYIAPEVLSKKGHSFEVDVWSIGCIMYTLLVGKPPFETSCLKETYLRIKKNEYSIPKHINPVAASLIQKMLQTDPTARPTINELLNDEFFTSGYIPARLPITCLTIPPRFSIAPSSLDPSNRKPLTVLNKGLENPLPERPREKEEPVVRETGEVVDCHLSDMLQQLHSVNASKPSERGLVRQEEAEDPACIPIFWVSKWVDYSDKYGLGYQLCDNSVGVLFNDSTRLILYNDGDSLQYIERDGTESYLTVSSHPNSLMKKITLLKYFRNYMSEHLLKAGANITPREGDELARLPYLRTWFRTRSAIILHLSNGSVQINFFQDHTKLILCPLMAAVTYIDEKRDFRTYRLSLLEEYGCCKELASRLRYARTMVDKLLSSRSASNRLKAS
PKNB (M. tuberculosis), sequence (P9WI81 whole entry): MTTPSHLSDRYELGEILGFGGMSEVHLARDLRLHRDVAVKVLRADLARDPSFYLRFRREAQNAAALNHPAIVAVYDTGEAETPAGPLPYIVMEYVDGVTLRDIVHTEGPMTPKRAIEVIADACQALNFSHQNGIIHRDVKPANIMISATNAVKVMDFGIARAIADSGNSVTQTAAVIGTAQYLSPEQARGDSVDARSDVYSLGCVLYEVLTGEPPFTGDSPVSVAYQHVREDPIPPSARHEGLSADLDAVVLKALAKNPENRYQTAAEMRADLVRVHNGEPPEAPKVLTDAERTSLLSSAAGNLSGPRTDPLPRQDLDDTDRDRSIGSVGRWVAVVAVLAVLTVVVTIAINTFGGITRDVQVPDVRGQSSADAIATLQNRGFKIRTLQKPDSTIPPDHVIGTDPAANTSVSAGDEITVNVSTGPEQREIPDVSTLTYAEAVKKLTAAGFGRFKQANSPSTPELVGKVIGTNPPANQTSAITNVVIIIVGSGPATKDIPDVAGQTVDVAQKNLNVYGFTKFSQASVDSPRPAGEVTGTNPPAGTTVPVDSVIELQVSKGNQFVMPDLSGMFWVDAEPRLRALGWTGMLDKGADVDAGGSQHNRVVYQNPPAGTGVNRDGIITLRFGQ
TRKB, sequence (Q16620 whole entry): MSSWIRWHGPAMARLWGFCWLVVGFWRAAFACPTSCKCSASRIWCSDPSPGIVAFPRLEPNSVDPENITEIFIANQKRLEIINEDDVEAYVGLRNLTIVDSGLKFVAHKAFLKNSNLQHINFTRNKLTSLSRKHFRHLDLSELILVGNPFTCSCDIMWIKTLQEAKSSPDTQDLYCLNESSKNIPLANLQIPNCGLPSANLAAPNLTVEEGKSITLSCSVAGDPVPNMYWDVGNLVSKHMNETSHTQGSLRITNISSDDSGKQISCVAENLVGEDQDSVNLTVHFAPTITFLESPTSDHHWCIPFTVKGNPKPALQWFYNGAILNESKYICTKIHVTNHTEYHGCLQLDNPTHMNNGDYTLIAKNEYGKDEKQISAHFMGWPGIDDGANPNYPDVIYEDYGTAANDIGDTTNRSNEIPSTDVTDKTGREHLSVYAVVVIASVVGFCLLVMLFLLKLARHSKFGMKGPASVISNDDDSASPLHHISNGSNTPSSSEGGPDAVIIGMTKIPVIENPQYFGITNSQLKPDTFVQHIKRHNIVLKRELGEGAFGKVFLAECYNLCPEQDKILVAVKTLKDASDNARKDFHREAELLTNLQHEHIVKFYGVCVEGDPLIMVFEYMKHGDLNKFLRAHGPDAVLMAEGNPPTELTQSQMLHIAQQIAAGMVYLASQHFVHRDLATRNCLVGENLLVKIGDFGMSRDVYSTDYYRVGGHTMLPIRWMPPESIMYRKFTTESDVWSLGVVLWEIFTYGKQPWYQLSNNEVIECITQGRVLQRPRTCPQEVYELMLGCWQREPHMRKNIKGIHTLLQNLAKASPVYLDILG
NEK7, sequence (Q8TDX7 whole entry): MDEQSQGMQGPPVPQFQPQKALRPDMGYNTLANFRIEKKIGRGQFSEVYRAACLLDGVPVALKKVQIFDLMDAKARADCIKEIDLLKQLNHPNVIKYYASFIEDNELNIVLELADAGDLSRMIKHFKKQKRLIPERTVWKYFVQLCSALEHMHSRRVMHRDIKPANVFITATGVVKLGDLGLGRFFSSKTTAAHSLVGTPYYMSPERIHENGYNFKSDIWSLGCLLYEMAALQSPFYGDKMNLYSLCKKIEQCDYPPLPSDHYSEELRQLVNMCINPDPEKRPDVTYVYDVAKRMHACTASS
NEK9, sequence (Q8TD19 whole entry): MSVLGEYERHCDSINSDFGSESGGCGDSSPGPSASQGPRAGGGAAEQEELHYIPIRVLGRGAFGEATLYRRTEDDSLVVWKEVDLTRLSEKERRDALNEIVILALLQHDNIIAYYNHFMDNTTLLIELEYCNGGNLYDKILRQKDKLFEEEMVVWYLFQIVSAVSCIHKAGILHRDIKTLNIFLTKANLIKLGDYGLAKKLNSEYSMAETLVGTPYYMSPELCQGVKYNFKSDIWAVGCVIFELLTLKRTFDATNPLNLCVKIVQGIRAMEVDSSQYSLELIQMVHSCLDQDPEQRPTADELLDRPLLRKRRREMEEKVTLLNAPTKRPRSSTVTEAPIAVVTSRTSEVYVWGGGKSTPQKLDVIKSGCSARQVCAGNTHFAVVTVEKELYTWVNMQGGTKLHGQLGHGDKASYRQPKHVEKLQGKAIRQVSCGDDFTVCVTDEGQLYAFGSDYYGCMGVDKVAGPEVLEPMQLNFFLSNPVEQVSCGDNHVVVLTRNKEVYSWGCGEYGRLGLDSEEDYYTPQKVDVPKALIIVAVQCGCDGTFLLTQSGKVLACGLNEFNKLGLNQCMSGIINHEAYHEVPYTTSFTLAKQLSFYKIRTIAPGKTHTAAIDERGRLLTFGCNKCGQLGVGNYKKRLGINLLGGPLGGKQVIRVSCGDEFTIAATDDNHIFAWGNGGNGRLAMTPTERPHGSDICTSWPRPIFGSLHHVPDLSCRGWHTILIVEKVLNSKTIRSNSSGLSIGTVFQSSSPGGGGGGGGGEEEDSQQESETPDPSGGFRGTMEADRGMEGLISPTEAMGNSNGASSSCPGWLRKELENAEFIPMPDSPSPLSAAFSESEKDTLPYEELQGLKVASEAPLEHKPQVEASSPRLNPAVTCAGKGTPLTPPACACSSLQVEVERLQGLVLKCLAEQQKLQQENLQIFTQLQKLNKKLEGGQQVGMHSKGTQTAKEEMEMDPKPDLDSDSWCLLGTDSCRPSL
RPS6KA5(Kin.Dom.2-C-terminal), sequence (O75582 whole entry): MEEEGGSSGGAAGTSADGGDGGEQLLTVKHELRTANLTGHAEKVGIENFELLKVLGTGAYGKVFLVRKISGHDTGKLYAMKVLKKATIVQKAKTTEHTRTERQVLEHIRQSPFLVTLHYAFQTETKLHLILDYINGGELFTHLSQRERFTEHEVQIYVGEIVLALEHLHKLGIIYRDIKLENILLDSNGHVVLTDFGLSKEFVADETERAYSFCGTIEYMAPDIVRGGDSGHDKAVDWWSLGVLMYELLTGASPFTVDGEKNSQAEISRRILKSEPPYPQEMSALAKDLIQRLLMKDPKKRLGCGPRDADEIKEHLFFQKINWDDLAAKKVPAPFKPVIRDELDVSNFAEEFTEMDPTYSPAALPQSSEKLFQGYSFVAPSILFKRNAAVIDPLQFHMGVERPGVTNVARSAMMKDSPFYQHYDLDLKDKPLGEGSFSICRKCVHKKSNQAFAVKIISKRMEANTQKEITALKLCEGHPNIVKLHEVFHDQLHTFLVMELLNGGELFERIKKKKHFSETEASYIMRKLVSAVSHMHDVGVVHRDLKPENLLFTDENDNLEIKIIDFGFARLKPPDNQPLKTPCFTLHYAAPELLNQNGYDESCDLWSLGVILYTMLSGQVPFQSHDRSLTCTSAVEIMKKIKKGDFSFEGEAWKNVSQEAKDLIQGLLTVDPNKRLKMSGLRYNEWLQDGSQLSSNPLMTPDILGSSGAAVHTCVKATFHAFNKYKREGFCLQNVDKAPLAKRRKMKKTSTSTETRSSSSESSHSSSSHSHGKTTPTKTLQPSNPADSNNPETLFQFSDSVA
RPS6KA5(Kin.Dom.1-N-terminal), sequence (O75582 whole entry): as above
RSK3(Kin.Dom.1-N-terminal), sequence (Q15349 whole entry): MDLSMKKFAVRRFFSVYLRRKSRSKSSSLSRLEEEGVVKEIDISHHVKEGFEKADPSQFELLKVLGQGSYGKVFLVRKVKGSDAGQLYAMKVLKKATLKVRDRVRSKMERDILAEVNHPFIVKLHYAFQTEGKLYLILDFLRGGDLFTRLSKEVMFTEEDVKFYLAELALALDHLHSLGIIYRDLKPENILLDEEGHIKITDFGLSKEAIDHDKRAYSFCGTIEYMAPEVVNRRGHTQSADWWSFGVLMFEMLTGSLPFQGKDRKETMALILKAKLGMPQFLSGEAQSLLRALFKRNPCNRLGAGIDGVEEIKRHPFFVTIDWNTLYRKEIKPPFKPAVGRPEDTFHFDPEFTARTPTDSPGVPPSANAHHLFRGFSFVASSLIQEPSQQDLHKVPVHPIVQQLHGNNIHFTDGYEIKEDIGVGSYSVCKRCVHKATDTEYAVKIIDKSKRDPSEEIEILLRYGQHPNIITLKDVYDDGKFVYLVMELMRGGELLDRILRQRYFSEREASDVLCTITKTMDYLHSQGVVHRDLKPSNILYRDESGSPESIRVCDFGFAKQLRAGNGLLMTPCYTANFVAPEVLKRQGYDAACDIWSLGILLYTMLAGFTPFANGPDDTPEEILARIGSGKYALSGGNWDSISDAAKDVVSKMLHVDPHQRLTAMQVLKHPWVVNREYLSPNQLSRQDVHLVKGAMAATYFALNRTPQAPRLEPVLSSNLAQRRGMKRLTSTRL
RSK3(Kin.Dom.2-C-terminal), sequence (Q15349 whole entry): as above

CNc1ncc2cc(-c3ccc(-c4cccc(C)n4)cc3Cl)c(=O)n(C[C@H]3OC[C@H](N)CO3)c2n1 [compound 6, G-5555]
82%: [7]
51%: [4]
56%: [6]
90%: [15]
100%: all other assays above
